The results in this text go back to US9216187B2, “Soyasapogenol composition” (J-OIL MILLS, INC., priority 2011, dated 2015).

The series in a line: Evaluation of absorption of soyasapogenol composition, blood soyasapogenol B at 1 to 12 hours and AUC (Examples 3 to 4). Format: in vivo. The conditions noted are these: rat, plasma, oral, male SD rats, single dose with feeding needle, 100 μmol/kg body weight in terms of saponin aglycone. As for the experimental part: To each of the obtained plasma, 0.2 M Na acetate buffer solution (pH 5.5) in an amount same as that of the plasma was added. Subsequently, 3000 units of β-glucuronidase (product name: H-2, product of Sigma-Aldrich, Co. LLC) were added, and an enzyme reaction was allowed at 37° C. for 12 hours. After termination of the reaction, 3 ml of a mixture liquid of methanol:acetonitrile (1:1) and internal standard formononetin (product of Sigma-Aldrich, Co. LLC) were added to the enzyme treatment solution, followed by centrifugation, and then a supernatant was collected. An operation of adding 3 ml of the mixture liquid of methanol:acetonitrile (1:1) to a residue and performing centrifugation was repeated twice, and a supernatant was collected after each of the operations. The collected supernatants were mixed and subjected to drying under reduced pressure using a rotary evaporator.
8-week-old male SD rats (Charles River Laboratories Japan, Inc.) were divided into groups so that one group consists of 4 rats, and each of the compositions of Examples 3 and 4 and Comparative Example 1 was suspended into a 0.5% CMC solution, followed by a single dose administration of the suspension in an equivalent amount (100 μmol/kg body weight) in terms of saponin aglycone to each of the rats with a feeding needle. Blood sampling was conducted at 1, 3, 8 and 12 hours after the administration, and plasma was obtained from each of the blood samples. Each of the obtained plasma was subjected to the pre-treatment and the HPLC-MS analysis in the same manner as in Example 1 to examine the soyasapogenol B concentration in the blood. The blood soyasapogenol B concentration at 1 to 12 hours after the administration and AUCs (areas under curve of the blood concentration) are shown in Table 3.

In the case of `CC1(C)C[C@@H](O)[C@]2(C)CC[C@]3(C)C(=CC[C@@H]4[C@@]5(C)CC[C@H](O)[C@](C)(CO)[C@@H]5CC[C@]43C)[C@@H]2C1` [Comp. Ex. 1, soyasapogenol B], the AUC (100 umol/kg, 1 to 12 hours, read-out: AUC (area under curve of the blood soyasapogenol B concentration)) came to 2910 ng·h/mL. Further, the concentration at 1 h (1 hour, read-out: Blood Soyasapogenol B Concentration 1 hour after) amounted to 317 ng/mL. For the same molecule, the concentration at 3 h (3 hours, read-out: Blood Soyasapogenol B Concentration 3 hours after) was determined as 280 ng/mL. In addition, the concentration at 8 h (8 hours, read-out: Blood Soyasapogenol B Concentration 8 hours after) was 293 ng/mL. For the setting “12 hours, read-out: Blood Soyasapogenol B Concentration 12 hours after”, the concentration at 12 h came out at 68.1 ng/mL.
